Source: ChEMBL document CHEMBL4130440, “Isolation, Synthesis, and Biological Activity of Chlorinated Alkylresorcinols from Dictyostelium Cellular Slime Molds” (J Nat Prod, 2017)
pIC50: −log10 of the molar value.

What was measured:
Jurkat [1] = assay: Immunosuppressive activity in human Jurkat cells assessed as inhibition of concanavalin A-induced IL-2 production at 20 uM pretreated for 30 mins followed by concanavalin A stimulation after 12 hrs by immunoassay relative to control; assay type: functional
Jurkat [2] = assay: Cytotoxicity against concanavalin A-induced human Jurkat cells assessed as reduction in cell viability up to 20 uM pretreated for 30 mins followed by concanavalin A stimulation after 12 hrs by MTT assay; assay type: cell-based
Jurkat [3] = assay: Immunosuppressive activity in human Jurkat cells assessed as inhibition of concanavalin A-induced IL-2 production pretreated for 30 mins followed by concanavalin A stimulation after 12 hrs by immunoassay; assay type: functional, cell-based

Compound | inhibition at 20 µM (Jurkat [1]) [%] | further results
CCCCCC/C=C\CC/C=C\CCCc1cc(O)c(Cl)c(O)c1 | < 50 | –
CCCCCCCCCCCCCCCc1cc(O)c(Cl)c(O)c1 | < 50 | –
CCCCCCCCCCCCCc1cc(O)c(Cl)c(O)c1 | < 50 | Activity (Jurkat [2]): Non-Toxic; pIC50 (Jurkat [3]): 4.80; inhibition (Jurkat [3]): Dose-dependent effect
CCCCCC[C@H]1C[C@H]1CCCCCc1cc(O)c(Cl)c(O)c1 | < 50 | –
CCCCCCCCCCCCCCc1cc(O)c(Cl)c(O)c1 | < 50 | –
CCCCCC/C=C\CCCCCc1cc(O)c(Cl)c(O)c1 | < 50 | –
CCCCCC[C@H]1C[C@H]1CCCCCCCc1cc(O)c(Cl)c(O)c1 | < 50 | –
CCCCCC/C=C\CCCCCCCc1cc(O)c(Cl)c(O)c1 | < 50 | –
